According to patent publication US3930838A, “S-benzyl-N,N-disec-butylthiocarbamate and its use as a rice field herbicide and a rice growth stimulant” (priority 1970, dated 1976):

How the values were obtained:
rice [1] = assay: Hothouse test on rice in flooded boxes, 27 days (Example 9a); assay type: in vivo, rice cv. RIBE
Excerpt: (§1) A test was arranged in a hothouse on a set of boxes having a 1,000 cm^2 internal surface. 18 Kg. of sieved rice field earth were put into each box. After leveling, the earth surfaces of each of a set of six boxes were uniformly sprayed with hydroacetone solutions containing, respectively, 0, 0.5, 0.75, 1, 1.25, and 1.5% of M3432. 20 Cc. of solution was sprayed into each box, corresponding to 0, 10, 15, 20, 25, and 30 kg./ha., respectively. Each box was flooded with a 10 cm. water layer measured from the earth surface. The sowing was carried out immediately afterwards with a pre-germinated (cv) RIBE rice seed, employing a quantity of 40 seeds per box.
During the test, the hothouse temperature ranged from +10°to +28°C. 27 Days after the treatment, all the rice plants were recovered from each box and subjected to biometric controls.

rice [2] = assay: Hothouse test on rice in flooded culture, 66 days (Example 9b); assay type: in vivo, rice cv. RIBE
Excerpt: as §1
A second test was carried out in a hothouse, employing the identical method and under the identical conditions as in Example 9a.

rice [3] = assay: Outdoor comparison of rice stimulating action of M3432 with lower homologues and isomers (Example 11); assay type: in vivo; settings: 21 days after sowing
Protocol: In the province of Pavia, a test was carried out with outdoor treatments in a loam soil, on rice plots having a 12 m^2 surface each.
Formulations of 20% M3432 in emulsifiable oil were compared with 20% formulations in emulsifiable oil of S-benzyl-N,N-diisopropyl thiocarbamate; S-benzyl-N,N-diisobutylthiocarbamate; and S-benzyl-N,N-din.butylthiocarbamate employing quantities of 4, 6 and 20 kg./ha.
For each treatment, the results were gathered on 20 plants 21 days after the sowing.

rice [4] = assay: Rice seed surface treatment, pots, test No. 1 (Example 17); assay type: in vivo, rice cv. RIBE; settings: 41 days
Protocol: A set of glass pots was prepared as described in Example 7. Immediately after such preparation the pots were filled with water to a level of 7 cm. above the ground surface. Cv. RIBE rice seeds, which were previously allowed to swell in water, were divided into four groups. Each group was treated, by application with a micro syringe with a quantity of M3432 composition; containing 70% active product, corresponding to the following doses of a.p. per ha.: 0, 2.5, 5, and 10 kg. 15 seeds coated with the compound were placed into each pot and subsequently covered with a thin layer of earth. After 41 days, the following results were obtained.

[5] = Acute oral toxicity, rats; settings: rat, in vivo, per os
rice [6] = assay: Post emergence outdoor plot test No. 3, rice (Example 16); assay type: in vivo; settings: 45 days, emulsifiable oil
Protocol: Some plots, 12 m^2 each, delimited by artificial levees, were prepared outdoors. AFter soil working and grading, the plots were sowed with Echinocloa spp. on May 18, 1970 and then flooded to a height of 10 cm. with water on May 20, 1970. The same day, rice was sowed in quantities corresponding to 150 kg. of seed per ha. Both rice and Echinocloa emerged from the soil 5 days after the flooding.
When the barnyard grass reached an average height of 12-14 cm., the treatment was effected by uniformly spraying the flooded water surface.
Products being tested: M3432 and molinate, in emulsifiable oil base.
Doses: 0, 4, and 6 kg./ha.
The first effects on Echinocloa spp. were noticed for both products 7 days after treatment, 45 Days after treatment the following was observed: […]

rats = settings: os, literature values; cited from earlier work

Structure (SMILES): CCC(C)N(C(=O)SCc1ccccc1)C(C)CC (centres unmarked) [M3432, S-benzyl-N,N-disec.butylthiocarbamate]
- Main root (rice [1]; 10 kg./ha.): 4.82 cm.
- Main root, % of control (rice [1]; 10 kg./ha.): 150 % of control
- Secondary roots (rice [1]; 10 kg./ha.): 2.82 No.
- Secondary roots, % of control (rice [1]; 10 kg./ha.): 127 % of control
- Shoot (rice [1]; 10 kg./ha.): 11.70 cm.
- Shoot, % of control (rice [1]; 10 kg./ha.): 198 % of control
- Sprouted plants (rice [1]; 10 kg./ha.): 52.5%
- Sprouted plants, % of control (rice [1]; 10 kg./ha.): 131 % of control
- Main root (rice [1]; 15 kg./ha.): 4.06 cm.
- Main root, % of control (rice [1]; 15 kg./ha.): 131 % of control
- Secondary roots (rice [1]; 15 kg./ha.): 2.95 No.
- Secondary roots, % of control (rice [1]; 15 kg./ha.): 133 % of control
- Shoot (rice [1]; 15 kg./ha.): 11.99 cm.
- Shoot, % of control (rice [1]; 15 kg./ha.): 203 % of control
- Sprouted plants (rice [1]; 15 kg./ha.): 57.5%
- Sprouted plants, % of control (rice [1]; 15 kg./ha.): 144 % of control
- Main root (rice [1]; 20 kg./ha.): 8.29 cm.
- Main root, % of control (rice [1]; 20 kg./ha.): 267 % of control
- Secondary roots (rice [1]; 20 kg./ha.): 4.42 No.
- Secondary roots, % of control (rice [1]; 20 kg./ha.): 199 % of control
- Shoot (rice [1]; 20 kg./ha.): 12.15 cm.
- Shoot, % of control (rice [1]; 20 kg./ha.): 205 % of control
- Sprouted plants (rice [1]; 20 kg./ha.): 77.5%
- Sprouted plants, % of control (rice [1]; 20 kg./ha.): 193 % of control
- Main root (rice [1]; 25 kg./ha.): 6.77 cm.
- Main root, % of control (rice [1]; 25 kg./ha.): 218 % of control
- Secondary roots (rice [1]; 25 kg./ha.): 4.66 No.
- Secondary roots, % of control (rice [1]; 25 kg./ha.): 210 % of control
- Shoot (rice [1]; 25 kg./ha.): 16.77 cm.
- Shoot, % of control (rice [1]; 25 kg./ha.): 283 % of control
- Sprouted plants (rice [1]; 25 kg./ha.): 85.0%
- Sprouted plants, % of control (rice [1]; 25 kg./ha.): 212 % of control
- Main root (rice [1]; 30 kg./ha.): 8.84 cm.
- Main root, % of control (rice [1]; 30 kg./ha.): 285 % of control
- Secondary roots (rice [1]; 30 kg./ha.): 4.90 No.
- Secondary roots, % of control (rice [1]; 30 kg./ha.): 220 % of control
- Shoot (rice [1]; 30 kg./ha.): 14.59 cm.
- Shoot, % of control (rice [1]; 30 kg./ha.): 246 % of control
- Sprouted plants (rice [1]; 30 kg./ha.): 87.5%
- Sprouted plants, % of control (rice [1]; 30 kg./ha.): 219 % of control
- Main root (rice [2]; 10 kg./ha.): 12.64 cm.
- Roots, weight on dry basis (rice [2]; 10 kg./ha.): 5.550 g. per 100 plant
- Secondary roots (rice [2]; 10 kg./ha.): 12.20 No.
- Shoot (rice [2]; 10 kg./ha.): 16.74 cm.
- Shoot, weight on dry basis (rice [2]; 10 kg./ha.): 8.000 g. per 100 plant
- Sprouted plants (rice [2]; 10 kg./ha.): 45.0%
- Main root (rice [2]; 15 kg./ha.): 13.54 cm.
- Roots, weight on dry basis (rice [2]; 15 kg./ha.): 6.800 g. per 100 plant
- Secondary roots (rice [2]; 15 kg./ha.): 13.30 No.
- Shoot (rice [2]; 15 kg./ha.): 18.16 cm.
- Shoot, weight on dry basis (rice [2]; 15 kg./ha.): 11.800 g. per 100 plant
- Sprouted plants (rice [2]; 15 kg./ha.): 45.0%
- Main root (rice [2]; 20 kg./ha.): 17.16 cm.
- Roots, weight on dry basis (rice [2]; 20 kg./ha.): 10.480 g. per 100 plant
- Secondary roots (rice [2]; 20 kg./ha.): 21.00 No.
- Shoot (rice [2]; 20 kg./ha.): 26.00 cm.
- Shoot, weight on dry basis (rice [2]; 20 kg./ha.): 18.050 g. per 100 plant
- Sprouted plants (rice [2]; 20 kg./ha.): 60.0%
- Main root (rice [2]; 25 kg./ha.): 10.26 cm.
- Roots, weight on dry basis (rice [2]; 25 kg./ha.): 4.250 g. per 100 plant
- Secondary roots (rice [2]; 25 kg./ha.): 10.05 No.
- Shoot (rice [2]; 25 kg./ha.): 15.00 cm.
- Shoot, weight on dry basis (rice [2]; 25 kg./ha.): 6.875 g. per 100 plant
- Sprouted plants (rice [2]; 25 kg./ha.): 40.0%
- Main root (rice [2]; 30 kg./ha.): 8.21 cm.
- Roots, weight on dry basis (rice [2]; 30 kg./ha.): 2.800 g. per 100 plant
- Secondary roots (rice [2]; 30 kg./ha.): 8.00 No.
- Shoot (rice [2]; 30 kg./ha.): 14.50 cm.
- Shoot, weight on dry basis (rice [2]; 30 kg./ha.): 5.050 g. per 100 plant
- Sprouted plants (rice [2]; 30 kg./ha.): 40.0%
- Main roots (rice [3]; 4 kg./ha.): 5.55 No.
- Secondary roots (rice [3]; 4 kg./ha.): 2.52 No.
- Shoot (rice [3]; 4 kg./ha.): 7.11 cm.
- Main roots (rice [3]; 6 kg./ha.): 5.73 No.
- Secondary roots (rice [3]; 6 kg./ha.): 2.63 No.
- Shoot (rice [3]; 6 kg./ha.): 7.34 cm.
- Main roots (rice [3]; 20 kg./ha.): 6.76 No.
- Secondary roots (rice [3]; 20 kg./ha.): 2.63 No.
- Shoot (rice [3]; 20 kg./ha.): 7.68 cm.
- Main root (rice [4]; 2.5 kg./ha.): 8.93 cm.
- Secondary roots (rice [4]; 2.5 kg./ha.): 3.90 no.
- Shoot (rice [4]; 2.5 kg./ha.): 17.16 cm.
- Stand (rice [4]; 2.5 kg./ha.): 68.80%
- Main root (rice [4]; 5 kg./ha.): 8.48 cm.
- Secondary roots (rice [4]; 5 kg./ha.): 4.02 no.
- Shoot (rice [4]; 5 kg./ha.): 16.83 cm.
- Stand (rice [4]; 5 kg./ha.): 62.20%
- Main root (rice [4]; 10 kg./ha.): 10.07 cm.
- Secondary roots (rice [4]; 10 kg./ha.): 4.23 no.
- Shoot (rice [4]; 10 kg./ha.): 16.92 cm.
- Stand (rice [4]; 10 kg./ha.): 62.20%
- LD50 [5]: 10200 mg/kg

Structure (SMILES): CCSC(=O)N1CCCCCC1 [Molinate, ethyl-1-hexamethylene-imino-carbothiolate, reference compound]
- Effect on rice (rice [6]; 4 kg./ha.): Stronger than the control
- Effect on rice (rice [6]; 6 kg./ha.): Stronger than the control
- Acute toxicity LD50 (rats): 500 to 725 mg/kg
